# Measurements from ChEMBL document CHEMBL5380816, “Inclusion of Nitrofurantoin into the Realm of Cancer Chemotherapy via Biology-Oriented Synthesis and Drug Repurposing” (J Med Chem, 2023).
# The source made the active and inactive calls. The rule behind the calls is not given here.
# How the values were obtained:
# [1] = tested on: HepG2; assay: Anticancer activity against human HepG2 cells assessed as absence of normal spindle shape incubated at 0.098uM for 72 hrs by phase contrast inverted microscopic analysis; format: functional, cell-based
# [2] = tested on: HeLa; assay: Induction of oxidative stress in human HeLa cells assessed as cell death by measuring redox alteration fluorescence incubated at 0.11 uM for 72 hrs in presence of dihydro dichlorofluorescein diacetate by DCFH-DA based flow cytometric analysis relative to control; format: functional
# [3] = tested on: Caco-2; assay: Induction of oxidative stress in human Caco-2 cells assessed as cell death by measuring redox alteration fluorescence incubated at 0.027 uM for 72 hrs in presence of dihydro dichlorofluorescein diacetate by DCFH-DA based flow cytometric analysis relative to control; format: functional
# [4] = tested on: HeLa; assay: Induction of apoptosis in human HeLa cells assessed as viable cells incubated at 0.098 uM for 72 hrs by annexin V-FITC based propidium iodide dual staining assay (reference value: 97.23%); format: functional; settings: read-out: Activity
# [5] = tested on: HeLa; assay: Anticancer activity against human HeLa cells assessed as cell shrinkage incubated at 0.098uM for 72 hrs by phase contrast inverted microscopic analysis; format: functional, cell-based
# [6] = tested on: MCF7; assay: Anticancer activity against human MCF7 cells assessed as smaller cells incubated at 0.098uM for 72 hrs by phase contrast inverted microscopic analysis; format: functional, cell-based
# [7] = tested on: Caco-2; assay: Induction of oxidative stress in human Caco-2 cells assessed as cell death by measuring redox alteration fluorescence incubated at 0.097 uM for 72 hrs in presence of dihydro dichlorofluorescein diacetate by DCFH-DA based flow cytometric analysis relative to control; format: functional
# [8] = tested on: HeLa; assay: Induction of apoptosis in human HeLa cells assessed as viable cells by measuring green uniform patch incubated at 0.017 uM for 72 hrs by acridine orange-ethidium bromide dual staining based fluorescence microscopic analysis; format: functional, cell-based
# [9] = tested on: Caco-2; assay: Induction of apoptosis in human Caco-2 cells assessed as viable cells by measuring green uniform patch incubated at 0.017 uM for 72 hrs by acridine orange-ethidium bromide dual staining based fluorescence microscopic analysis; format: functional, cell-based
# [10] = tested on: MCF7; assay: Induction of apoptosis in human MCF7 cells assessed as viable cells incubated at 0.017 uM for 72 hrs by annexin V-FITC based propidium iodide dual staining assay (reference value: 99.9%); format: functional; settings: read-out: Activity
# [11] = tested on: HeLa; assay: Induction of apoptosis in human HeLa cells assessed as total apoptotic cells incubated at 0.017 uM for 72 hrs by annexin V-FITC based propidium iodide dual staining assay (reference value: 0 +/- 0.035%); format: functional
# [12] = tested on: MCF7; assay: Induction of apoptosis in human MCF7 cells assessed as early apoptotic cells incubated at 0.017 uM for 72 hrs by annexin V-FITC based propidium iodide dual staining assay (reference value: 0.06%); format: functional
# [13] = tested on: HepG2; assay: Induction of apoptosis in human HepG2 cells assessed as early apoptotic cells incubated at 0.017 uM for 72 hrs by annexin V-FITC based propidium iodide dual staining assay (reference value: 1.74%); format: functional
# [14] = tested on: MCF7; assay: Induction of apoptosis in human MCF7 cells assessed as early apoptotic cells by measuring bright green patch incubated at 0.11 uM for 72 hrs by acridine orange-ethidium bromide dual staining based fluorescence microscopic analysis; format: functional, cell-based
# [15] = tested on: dsDNA; assay: Induction of damage in dsDNA (unknown origin) assessed as DNA disruption by measuring amplitude at 100 uM incubated for 2.5 hrs by EvaGreen based fluorescence plate reader analysis; format: nucleic-acid assay
# [16] = tested on: HeLa; assay: Induction of apoptosis in human HeLa cells assessed as late apoptotic cells incubated at 0.11 uM for 72 hrs by annexin V-FITC based propidium iodide dual staining assay (reference value: 0%); format: functional
# [17] = tested on: HepG2; assay: Induction of apoptosis in human HepG2 cells assessed as caspase3/7 activation at 0.11 uM using caspase-glo 3/7 as substrate relative to control; format: functional
# [18] = tested on: MCF7; assay: Anticancer activity against human MCF7 cells assessed as smaller cells incubated at 0.11 uM for 72 hrs by phase contrast inverted microscopic analysis; format: functional, cell-based
# [19] = tested on: MCF7; assay: Induction of apoptosis in human MCF7 cells assessed as necrotic cells incubated at 0.11 uM for 72 hrs by annexin V-FITC based propidium iodide dual staining assay (reference value: 0.03%); format: functional
# [20] = tested on: Caco-2; assay: Induction of apoptosis in human Caco-2 cells assessed as total apoptotic cells incubated at 0.11 uM for 72 hrs by annexin V-FITC based propidium iodide dual staining assay (reference value: 0.04 +/- 0.005%); format: functional
# [21] = tested on: HeLa; assay: Induction of apoptosis in human HeLa cells assessed as early apoptotic cells by measuring bright green patch incubated at 0.11 uM for 72 hrs by acridine orange-ethidium bromide dual staining based fluorescence microscopic analysis; format: functional, cell-based
# [22] = tested on: MCF7; assay: Induction of apoptosis in human MCF7 cells assessed as late apoptotic cells by measuring orange to red patch incubated at 0.11 uM for 72 hrs by acridine orange-ethidium bromide dual staining based fluorescence microscopic analysis; format: functional, cell-based
# [23] = tested on: Caco-2; assay: Anticancer activity against human Caco-2 cells assessed as cell shrinkage incubated at 0.11 uM for 72 hrs by phase contrast inverted microscopic analysis; format: functional, cell-based
# [24] = tested on: Caco-2; assay: Induction of apoptosis in human Caco-2 cells assessed as early apoptotic cells incubated at 0.11 uM for 72 hrs by annexin V-FITC based propidium iodide dual staining assay (reference value: 0.07%); format: functional
# [25] = tested on: MCF7; assay: Anticancer activity against human MCF7 cells incubated for 24 hrs by MTT assay; format: functional, cell-based; settings: MCF7, 24 h
# [26] = species on record: Homo sapiens; assay: Selectivity index, ratio IC50 for human MDA-MB-231 cells to IC50 for human MCF7 cells
# [27] = tested on: Caco-2; assay: Anticancer activity against human Caco-2 cells assessed as losing contact with neighbouring cells incubated at 0.097uM for 72 hrs by phase contrast inverted microscopic analysis; format: functional, cell-based
# [28] = tested on: MCF7; assay: Induction of apoptosis in human MCF7 cells assessed as viable cells incubated at 0.097 uM for 72 hrs by annexin V-FITC based propidium iodide dual staining assay (reference value: 99.9%); format: functional; settings: read-out: Activity
# [29] = tested on: HeLa; assay: Anticancer activity against human HeLa cells assessed as round cells incubated at 0.097uM for 72 hrs by phase contrast inverted microscopic analysis; format: functional, cell-based
# [30] = tested on: HepG2; assay: Induction of apoptosis in human HepG2 cells assessed as viable cells incubated at 0.097 uM for 72 hrs by annexin V-FITC based propidium iodide dual staining assay (reference value: 97.27%); format: functional; settings: read-out: Activity
# [31] = tested on: MCF7; assay: Anticancer activity against human MCF7 cells assessed as smaller cells incubated at 0.097uM for 72 hrs by phase contrast inverted microscopic analysis; format: functional, cell-based
# [32] = tested on: Caco-2; assay: Induction of oxidative stress in human Caco-2 cells assessed as cell death by measuring redox alteration fluorescence incubated at 0.017 uM for 72 hrs in presence of dihydro dichlorofluorescein diacetate by DCFH-DA based flow cytometric analysis relative to control; format: functional
# [33] = tested on: Caco-2; assay: Anticancer activity against human Caco-2 cells assessed as round cells incubated at 0.097uM for 72 hrs by phase contrast inverted microscopic analysis; format: functional, cell-based
# [34] = tested on: MCF7; assay: Induction of apoptosis in human MCF7 cells assessed as early apoptotic cells incubated at 0.097 uM for 72 hrs by annexin V-FITC based propidium iodide dual staining assay (reference value: 0.06%); format: functional
# [35] = tested on: HeLa; assay: Induction of apoptosis in human HeLa cells assessed as early apoptotic cells incubated at 0.097 uM for 72 hrs by annexin V-FITC based propidium iodide dual staining assay (reference value: 2.77%); format: functional
smiles,measurement,setting,value
O=C(CN1C(=O)CN(/N=C/c2ccc([N+](=O)[O-])o2)C1=O)c1ccc(Cl)cc1,Activity,[1],Active
same,Activity,[2],32.41%
same,Activity,[3],54.7%
same,viability at 0.098 µM,[4],29.8%
same,Activity,[5],Active
same,Activity,[6],Active
O=c1[nH]cc(F)c(=O)[nH]1 [FLUOROURACIL],Activity,[7],4.78%
same,Activity,[8],Active
same,Activity,[9],Active
same,viability at 0.017 µM,[10],90.9%
same,Activity,[11],4.29%
same,Activity,[12],6.16%
same,Activity,[13],7.69%
C#CCN1C(=O)CN(/N=C/c2ccc([N+](=O)[O-])o2)C1=O,Activity,[14],Active
same,Activity,[15],177
same,Activity,[16],22.69%
same,Activity,[17],63%
same,Activity,[18],Active
same,Activity,[19],4.01%
same,Activity,[20],45.81%
same,Activity,[21],Active
same,Activity,[22],Active
same,Activity,[23],Active
same,Activity,[24],4.84%
same,IC50,[25],120 µM
same,Ratio IC50,[26],2
NS(=O)(=O)c1ccc(-n2cc(CN3C(=O)CN(/N=C/c4ccc([N+](=O)[O-])o4)C3=O)nn2)cc1,Activity,[27],Active
same,viability at 0.097 µM,[28],31.1%
same,Activity,[29],Active
same,viability at 0.097 µM,[30],78.9%
same,Activity,[31],Active
same,Activity,[32],22.21%
same,Activity,[33],Active
same,Activity,[34],4.85%
same,Activity,[35],17.31%
